# Data published in patent publication US20240383913A1, “THIOPHENE RING COMPOUND, PREPARATION METHOD THEREFOR AND APPLICATION THEREOF” (CENTER FOR EXCELLENCE IN MOLECULAR CELL SCIENCE, CHINESE …, priority 2021, published 2024).
# Key:
# dopamine D2 receptors [1] = target: T1, dopamine D2 receptors (Homo sapiens (Human), UniProt P14416); assay: Dopamine D2 receptor Gαi1 BRET (G protein trimer dissociation); format: cell-based; details: for EC50: read-out: Gαi1 BRET EC50; for Emax: read-out: Gαi1 BRET (Emax %);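 as to all read-outs here: transfected cells co-expressing D2 receptor, Gαi1-Rluc, Gβ3 and Gγ9-GFP, BRET with coelenterazine 400a at 5 µM read as G protein trimer dissociation, graded drug concentrations in duplicate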
# T1 sequence (P14416 whole entry): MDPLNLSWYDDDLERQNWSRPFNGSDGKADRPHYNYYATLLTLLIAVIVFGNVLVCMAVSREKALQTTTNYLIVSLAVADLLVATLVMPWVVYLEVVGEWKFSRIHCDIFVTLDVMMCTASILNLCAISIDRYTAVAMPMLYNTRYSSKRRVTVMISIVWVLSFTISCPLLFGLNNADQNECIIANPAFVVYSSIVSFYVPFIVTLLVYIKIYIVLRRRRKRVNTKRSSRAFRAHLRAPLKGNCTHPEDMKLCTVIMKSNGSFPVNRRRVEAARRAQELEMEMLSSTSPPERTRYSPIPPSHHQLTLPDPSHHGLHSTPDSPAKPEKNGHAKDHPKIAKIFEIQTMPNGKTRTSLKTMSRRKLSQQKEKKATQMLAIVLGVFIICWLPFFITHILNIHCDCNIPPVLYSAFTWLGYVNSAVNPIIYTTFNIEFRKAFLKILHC
# Description: (§1) To examine the downstream G protein signaling pathway mediated by dopamine D2 receptors, on the first day, a 6 cm culture dish was used for transfection with 1 μg of dopamine D2 receptors, 1 μg of Gαi1 containing a C-terminal seaweed luciferase (Gαi1-Rluc), 1 μg of Gβ3, 1 μg of Gγ9 containing C-terminal green fluorescent protein (Gγ9-GFP), and 16 μL of PEI. At the same time, in order to examine the downstream β-arrestin2 signaling pathway mediated by dopamine D2 receptors, on the first day, a 6 cm culture dish was used for transfection with 500 μg of dopamine D2 receptors containing C-terminal seaweed luciferase (D2-Rluc), 500 μg of G protein-coupled receptor kinase 2 (GRK2), 2500 μg of β-arrestin2 containing N-terminal green fluorescent protein (GFP2-ARRB2) mixed with 14 μL of PEI. The next day, the confluent cells of a 6 cm culture dish were digested and reseeded into a 96-well plate with 100 μL of culture medium added to each well. On the third day, the drugs were added for test. The 96-well plate was taken out from the cell incubator to decant the culture medium, 40 μL of the substrate coelenterazine 400a (final concentration of 5 μM) was added to each well, and then 20 μL of different drugs were added sequentially from left to right to ensure that the final concentration of the drug decreased gradually from bottom to top, with two replicates per treatment. Finally, the prepared samples were loaded on machine for test. The machine readout value reflected the recruitment of β-arrestin2 to the membrane or the dissociation of G protein trimer. The former indicated the degree of activation of the β-arrestin2 signaling pathway downstream of the dopamine D2 receptors, and the latter indicated the degree of activation of the G protein signaling pathway downstream of the dopamine D2 receptors.
# 5-HT1A receptor [2] = target: T2, 5-HT1A receptor (Homo sapiens (Human), UniProt P08908); assay: Affinity for 5-HT1A receptors, radioligand competition with [3H]-LSD; format: binding; details: 293T membrane transiently expressing 5-HT1A; [3H]-LSD; read-out: 5-HT1A affinity Ki;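 also: membranes from cells transiently transfected with 5-HT1A receptor, bound [3H]-LSD displaced by compound at 10^-9 to 10^-5 M, 2 h incubation at room temperature in the dark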
# T2 sequence (P08908 whole entry): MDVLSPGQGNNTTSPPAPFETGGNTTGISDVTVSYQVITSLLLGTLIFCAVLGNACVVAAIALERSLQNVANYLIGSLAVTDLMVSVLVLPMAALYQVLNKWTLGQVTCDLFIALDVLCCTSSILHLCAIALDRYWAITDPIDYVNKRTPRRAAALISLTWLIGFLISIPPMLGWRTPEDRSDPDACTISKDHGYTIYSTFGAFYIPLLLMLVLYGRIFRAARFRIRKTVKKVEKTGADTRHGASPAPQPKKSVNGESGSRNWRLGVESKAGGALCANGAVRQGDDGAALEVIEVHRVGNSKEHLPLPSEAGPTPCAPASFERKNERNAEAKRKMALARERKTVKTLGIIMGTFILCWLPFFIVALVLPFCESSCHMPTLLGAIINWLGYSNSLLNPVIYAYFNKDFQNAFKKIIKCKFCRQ
# Description: The affinity of the compounds of the present disclosure for the 5-HTIA receptors was determined by the method of radioligand competition experiment. In the first step, a cell membrane component containing specific 5-HTIA receptor was prepared. A 10 cm culture dish was used for transfection with 10 ng of the 5-HTIA receptor and 40 μL of PEI. After 48 hours, the 10 cm culture dish was taken out from the cell incubator and the cultured cells had expressed the 5-HTIA receptor. A vacuum pump was used to suck off the culture medium, 3 mL of lysis buffer was added to each culture dish, and the cells were placed in a 4° C. cold room for 10 minutes. After the cells were detached, the cells were transferred to a 15 mL centrifuge tube and centrifuged at 1500 rpm for 5 minutes at 4° C., and the supernatant was discarded. The cell pellet was transferred to a tissue homogenizer, and 3 mL of lysis buffer was added and fully ground until the cells were broken. Then, cell suspension was equally aliquoted into several EP tubes, centrifuged at 12000 rpm for 5 minutes at 4° C., and the supernatant was discarded. The precipitate was the cell membrane component containing the 5-HT1A receptor. […] First, a standard binding buffer was added to the cell membrane component containing the 5-HT1A receptor, and the cell membrane was disrupted and resuspended with an electric tissue homogenizer. 30 μL of membrane protein suspension was added to each well of a 96-well plate. Then, 30 μL of different drugs were added to the 96-well plate sequentially from bottom to top to ensure that the final drug concentrations were 10^−5 M, 10^−6 M, 10^−7 M, 10^−8 M, 10^−9 M, and 0 M, with two replicates per treatment. Next, 30 μL of [3H]-LSD was added to each well of the 96-well plate. The plate was incubated for 2 hours at room temperature in the dark. Detection was conducted. The machine readout value reflected the amount of [3H]-LSD bound on the membrane, and after further data processing, the affinity Ki values of different compounds for the 5-HTIA receptor were obtained. To examine the downstream G protein signaling pathway mediated by 5-HTIA receptors, on the first day, a 6 cm culture dish was used for transfection with 1 μg of 5-HTIA receptors, 1 μg of Gαi1 containing C-terminal seaweed luciferase (Gαi1-Rluc), 1 μg of Gβ3, 1 μg of Gγ9 containing C-terminal green fluorescent protein (Gγ9-GFP), and 16 μL of PEI. The next day, the confluent cells of a 6 cm culture dish were digested and reseeded into a 96-well plate with 100 μL of culture medium was added to each well. On the third day, the drugs were added for test. The 96-well plate was taken out from the cell incubator to decant the culture medium, 40 μL of the substrate coelenterazine 400a (final concentration of 5 μM) was added to each well, and then 20 μL of different drugs were added sequentially from left to right to ensure that the final concentration of the drug decreased gradually from bottom to top, with two replicates per treatment. Finally, the prepared samples were loaded on machine for test. The machine readout value reflected the dissociation of G protein trimer, and thereby indicated the degree of activation of the G protein signaling pathway downstream of the 5-HTIA receptors.
# 5-HT1A receptor [3] = target: T2, 5-HT1A receptor; assay: 5-HT1A receptor Gαi1 BRET (G protein trimer dissociation); format: cell-based; details: 5-HT1A receptor, G protein pathway; for EC50: read-out: Gαi1 BRET EC50;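 as to all read-outs here: cells transiently co-expressing 5-HT1A receptor, luciferase-tagged Gαi1, Gβ3 and GFP-tagged Gγ9, seeded in 96-well plates for BRET measurement of G protein signaling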
# 5-HT2A receptor [4] = target: T3, 5-HT2A receptor (Homo sapiens (Human), UniProt P28223); assay: Affinity for 5-HT2A receptors, radioligand competition with [3H]-ketanserin; format: binding; details: 293T membrane transiently expressing 5-HT2A
# T3 sequence (P28223 whole entry, the tested form may be a part): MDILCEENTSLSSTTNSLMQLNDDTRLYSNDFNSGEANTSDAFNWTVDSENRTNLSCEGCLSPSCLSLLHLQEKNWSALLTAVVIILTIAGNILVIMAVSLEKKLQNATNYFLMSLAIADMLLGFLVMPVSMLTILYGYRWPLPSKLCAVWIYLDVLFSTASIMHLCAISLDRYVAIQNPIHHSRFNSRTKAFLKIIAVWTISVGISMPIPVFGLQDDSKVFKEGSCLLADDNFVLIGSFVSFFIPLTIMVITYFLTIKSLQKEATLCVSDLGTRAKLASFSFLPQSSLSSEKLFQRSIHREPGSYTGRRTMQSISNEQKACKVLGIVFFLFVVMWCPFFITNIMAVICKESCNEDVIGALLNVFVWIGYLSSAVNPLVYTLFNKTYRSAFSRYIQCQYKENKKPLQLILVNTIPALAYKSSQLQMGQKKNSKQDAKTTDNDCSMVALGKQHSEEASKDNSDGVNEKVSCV
# Description: The affinity of the compounds of the present disclosure for the 5-HT2A receptors was determined by the method of radioligand competition experiment. In the first step, a cell membrane component containing specific 5-HT2A receptor was prepared. A 10 cm dish was used for transfection with 10 ng of the 5-HT2A receptor and 40 μL of PEI. After 48 hours, the 10 cm dish was taken out from the cell incubator and the cultured cells had expressed the 5-HT2A receptor. A vacuum pump was used to suck off the culture medium, 3 mL of lysis buffer was added to each culture dish, and the cells were placed in a 4° C. cold room for 10 minutes. After the cells were detached, the cells were transferred to a 15 mL centrifuge tube and centrifuged at 1500 rpm for 5 minutes at 4° C., and the supernatant was discarded. The cell pellet was transferred to a tissue homogenizer, and 3 mL of lysis buffer was added and fully ground until the cells were broken. Then, cell suspension was equally aliquoted into several EP tubes, centrifuged at 12000 rpm for 5 minutes at 4° C., and the supernatant was discarded. The precipitate was the cell membrane component containing the 5-HT2A receptor. […] First, a standard binding buffer was added to the cell membrane component containing the 5-HT2A receptor, and the cell membrane was disrupted and resuspended with an electric tissue homogenizer. 30 μL of membrane protein suspension was added to each well of a 96-well plate. Then, 30 μL of different drugs were added to the 96-well plate sequentially from bottom to top to ensure that the final drug concentrations were 10^−5 M, 10^−6 M, 10^−7 M, 10^−8 M, 10^−9 M, and 0 M, with two replicates per treatment. Next, 30 μL of [3H]-ketanserin was added to each well of the 96-well plate. The plate was incubated for 2 hours at room temperature in the dark. Detection was conducted. The machine readout value reflected the amount of [3H]-ketanserin bound on the membrane, and after further data processing, the affinity Ki values of different compounds for the 5-HT2A receptor were obtained.
# dopamine D2 receptors [5] = target: T1, dopamine D2 receptors; assay: Dopamine D2 receptor β-arrestin2 BRET (recruitment); format: cell-based; details: for EC50: read-out: β-arrestin2 BRET EC50; for Emax: read-out: β-arrestin2 BRET (Emax %);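 as to all read-outs here: cells co-expressing Rluc-fused D2 receptor, GRK2 and GFP2-fused β-arrestin2, BRET read with coelenterazine 400a after adding drug over a concentration series, in duplicate wells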
# Description: as §1
# dopamine D2 receptors [6] = target: T1, dopamine D2 receptors; assay: Affinity for dopamine D2 receptors, radioligand competition with [3H]-Methylspiperone; format: binding; details: 293T membrane transiently expressing D2
# Description: The affinity of the compounds of the present disclosure for the dopamine D2 receptors was determined by the method of radioligand competition experiment. In the first step, a cell membrane component containing specific dopamine D2 receptors was prepared. A 10 cm culture dish was used for transfection with 10 ng of the dopamine D2 receptors and 40 μL of polyethylenimine (PEI hereafter). After 48 hours, the 10 cm culture dish was taken out from the cell culture incubator and the cultured cells had expressed the dopamine D2 receptors. A vacuum pump was used to suck off the culture medium, 3 mL of lysis buffer was added to each culture dish, and the cells were placed in a 4° C. cold room for 10 minutes. After the cells were detached, the cells were transferred to a 15 mL centrifuge tube and centrifuged at 1500 rpm for 5 minutes at 4° C., and the supernatant was discarded. The cell pellet was transferred to a tissue homogenizer, and 3 mL of lysis buffer was added and fully ground until the cells were broken. Then, cell suspension was equally aliquoted into several EP tubes, centrifuged at 12000 rpm for 5 minutes at 4° C., and the supernatant was discarded. The precipitate was the cell membrane component containing the dopamine D2 receptors. […] First, a standard binding buffer was added to the cell membrane component containing the dopamine D2 receptors, and the cell membrane was disrupted and resuspended with an electric tissue homogenizer. 30 μL of membrane protein suspension was added to each well of a 96-well plate. Then, 30 μL of different drugs were added to the 96-well plate sequentially from bottom to top to ensure that the final drug concentrations were 10^−5 M, 10^−6 M, 10^−7 M, 10^−8 M, 10^−9 M, and 0 M, with two replicates per treatment. Next, 30 μL of [3H]-Methylspiperone was added to each well of the 96-well plate. The plate was incubated for 2 hours at room temperature in the dark. Detection was conducted. The machine readout value reflected the amount of [3H]-Methylspiperone bound on the membrane, and after further data processing, the affinity Ki values of different compounds for the dopamine D2 receptors were obtained.
# 5-HT2A receptor [7] = target: T3, 5-HT2A receptor; assay: 5-HT2A receptor Gαq BRET (G protein trimer dissociation); format: cell-based; details: for EC50: read-out: Gαq BRET EC50; for Emax: read-out: Gαq BRET (Emax %);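 as to all read-outs here: cells transfected with 5-HT2A receptor, Gαq-Rluc, Gβ3 and Gγ9-GFP, BRET read with coelenterazine 400a (5 µM) across a compound dilution series in duplicate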
# Description: (§2) To examine the downstream G protein signaling pathway mediated by 5-HT2A receptors, on the first day, a 6 cm culture dish was used for transfection with 1 μg of 5-HT2A receptors, 1 μg of Gαq containing C-terminal seaweed luciferase (Gαq-Rluc), 1 μg of Gβ3, 1 μg of Gγ9 containing C-terminal green fluorescent protein (Gγ9-GFP), and 16 μL of PEI. At the same time, in order to examine the downstream β-arrestin2 signaling pathway mediated by 5-HT2A receptors, on the first day, a 6 cm culture dish was used for transfection with 500 μg of 5-HT2A receptors containing C-terminal seaweed luciferase (5-HT2A-Rluc), 500 μg of G protein-coupled receptor kinase 2 (GRK2), 2500 μg of β-arrestin2 containing N-terminal green fluorescent protein (GFP2-ARRB2), and 14 μL of PEI. The next day, the confluent cells of a 6 cm culture dish were digested and reseeded into a 96-well plate with 100 μL of culture medium was added to each well. On the third day, the drugs were added for test. The 96-well plate was taken out from the cell incubator to decant the culture medium, 40 μL of the substrate coelenterazine 400a (final concentration of 5 μM) was added to each well, and then 20 μL of different drugs were added sequentially from left to right to ensure that the final concentration of the drug decreased gradually from bottom to top, with two replicates per treatment. Finally, the prepared samples were loaded on machine for test. The machine readout value reflected the recruitment of β-arrestin2 to the membrane or the dissociation of G protein trimer. The former indicated the degree of activation of the β-arrestin2 signaling pathway downstream of the 5-HT2A receptors, and the latter indicated the degree of activation of the G protein signaling pathway downstream of the 5-HT2A receptors.
# 5-HT2A receptor [8] = target: T3, 5-HT2A receptor; assay: 5-HT2A receptor β-arrestin2 BRET (recruitment); format: cell-based; details: 5-HT2A receptor, β-arrestin2 pathway;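 also: cells co-expressing Rluc-tagged 5-HT2A receptor, GRK2 and GFP2-tagged β-arrestin2, read by BRET with coelenterazine 400a (5 µM) across graded drug concentrations in duplicate, signal reflecting β-arrestin2 membrane recruitment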
# Description: as §2
# [9] = D2 receptor, β-arrestin2 pathway
# [10] = 5-HT2A receptor, G protein pathway
SMILES,"EC50 (dopamine D2 receptors [1]; D2 receptor, G protein pathway)",Emax (dopamine D2 receptors [1]),Ki (5-HT1A receptor [2]),Emax (5-HT1A receptor [3]),EC50 (5-HT1A receptor [3]),Ki (5-HT2A receptor [4]),EC50 (dopamine D2 receptors [5]; [9]),Emax (dopamine D2 receptors [5]),Ki (dopamine D2 receptors [6]),EC50 (5-HT2A receptor [7]; [10]),Emax (5-HT2A receptor [7]),Emax (5-HT2A receptor [8]),"Emax (dopamine D2 receptors [1]; D2 receptor, G protein pathway)",Emax (dopamine D2 receptors [5]; [9]),β-arrestin2 BRET (Emax %) (5-HT2A receptor [8]),EC50 (5-HT2A receptor [8]; read-out: β-arrestin2 BRET EC50),Gαq BRET (Emax %) (5-HT2A receptor [7]; [10])
"c1cc2c3c(csc3c1)CC1CN(CCCOc3ccc4c(c3)OCO4)CCN21 (stereo not shown) [Compound I-16, 8-(3-(Benzo[d][1,3]Dioxol-5-Yloxy) Propyl)-6,6a, 7,8,9,10-Hexahydropyrazino[1,2-a]Thieno [4,3,2-De]Quinoline]",44.8 nM,57.9%,560 nM,88%,2720 nM,> 10000 nM,289 nM,37.7%,1550 nM,340 nM,19.5%,,,,,,
O=C1[C@H]2CCCC[C@H]2C(=O)N1CCCCN1CCN2c3cccc4scc(c34)CC2C1 (stereo partly shown) [Compound I-26],573 nM,47.9%,400 nM,88%,489 nM,,44.8 nM,19.8%,,339 nM,26%,,,,,,
"O=C(CN1CCN2c3cccc4scc(c34)CC2C1)c1ccc(F)cc1 (stereo not shown) [Compound I-10, 1-(4-Fluorophenyl)-2-(6a,7,9,10-Tetrahydropyrazino[1,2-a]Thieno [4,3,2-De]Quinolin-8 (6H)-Yl) Ethan-1-One]",796 nM,17.1%,970 nM,71%,7200 nM,,14.3 nM,21.5%,2060 nM,,110%,71.6%,,,,,
"O=C1c2ccccc2CCCN1CCCCN1CCN2c3cccc4scc(c34)CC2C1 (stereo not shown) [Compound I-25, 2-(4-(6a,7,9,10-Tetrahydropyrazino[1,2-a]Thieno [4,3,2-De]Quinolin-8 (6H)-Yl)Butyl)-2,3,4,5-Tetrahydro-1H-Benzo[c]Azepin-1-One]",27.8 nM,67.9%,770 nM,82%,1320 nM,300 nM,61.5 nM,49.2%,100 nM,969 nM,17.8%,,,,,,
"O=C1CCc2ccc(OCCCCN3CCN4c5cccc6scc(c56)CC4C3)cc2N1 (stereo not shown) [Compound I-20, 7-(4-(6a,7,9,10-Tetrahydropyrazino[1,2-a]Thieno [4,3,2-De]Quinolin-8 (6H)-Yl) Butoxy)-3,4-Dihydroquinolin-2 (1H)-One]",107 nM,64%,160 nM,72%,1540 nM,640 nM,464 nM,35.6%,30 nM,5590 nM,17.8%,,,,,,
"c1cc2c3c(csc3c1)CC1CN(CC3CC3)CCN21 (stereo not shown) [Compound I-4, 8-(Cyclopropylmethyl)-6,6a,7,8,9,10-Hexahydropyrazino[1,2-a]Thieno [4,3,2-De]Quinoline]",36.3 nM,,590 nM,69%,12800 nM,,11.2 nM,,320 nM,,,,25%,16.4%,,,
"O=C(NCCN1CCN2c3cccc4scc(c34)CC2C1)C1CCOCC1 (stereo not shown) [Compound I-14, N-(2-(6a,7,9,10-Tetrahydropyrazino[1,2-a]Thieno [4,3,2-De]Quinolin-8 (6H)-Yl)Ethyl)Tetrahydro-2H-Pyran-4-Carboxamide]",,,1300 nM,86%,2000 nM,1190 nM,,,> 10000 nM,475 nM,,,,,(21.00%),123 nM,(29.10%)
"O=C1NCCN1c1cccc(CN2CCN3c4cccc5scc(c45)CC3C2)c1 (stereo not shown) [Compound I-9, 1-(3-((6a,7,9,10-Tetrahydropyrazino[1,2-a]Thieno [4,3,2-De]Quinolin-8 (6H)-Yl)Methyl)Phenyl) Imidazolidin-2-One]",281 nM,,5460 nM,55%,14400 nM,690 nM,28.6 nM,,800 nM,747 nM,25%,,23.1%,24.2%,,,
"c1cc2c3c(csc3c1)CC1CN(CCCCOc3ccc4scnc4c3)CCN21 (stereo not shown) [Compound I-21, 8-(4-(Benzo[d]Thiazol-5-Yloxy)Butyl)-6,6a,7,8,9,10-Hexahydropyrazino[1,2-a]Thieno [4,3,2-De]Quinoline]",146 nM,54%,3220 nM,68%,8180 nM,> 10000 nM,233 nM,32.6%,7180 nM,4380 nM,16.6%,,,,,,
